In patent publication US11026972B2, “Methods for generating macrophages with enhanced cancer phagocytosis” (Georgia State University Research Foundation, Inc., priority 2016, dated 2021):

Assays:
[1] = test system: splenic macrophages, PEMs and BMDMs; assay: Ex vivo macrophage phagocytosis toward RBCs and other self-cells after activation; format: cell-based, mouse; conditions: for conversion to potent phagocytes toward self: PEMs and BMDMs from WT and mutant mice; for phagocytosis toward CD47^− RBCs of culture-retarded WT spleen macrophages: after 2 days of culturing; for phagocytosis toward RBCs: splenic macrophages from SIRPα^−/− or CD47^−/− mice
Procedure, shortened: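 Mouse splenic or peritoneal macrophages (2 h adherent selection) or BMDMs (M-CSF ~10 ng/ml, 5-6 days) were co-incubated 30 min at 37 °C with CFSE-labelled RBCs (1:5-10) or other cells (1:1-2). Uptake was scored by fluorescence microscopy and/or FACS with anti-F4/80 or anti-CD11b macrophage labelling.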

[2] = test system: Syk; assay: Syk phosphorylation at Y519/520 in PEMs; format: cell-based, mouse
Method: FIGS. 5A-5H include data related to our experiments on the role of Syk in phagocytic activation. […] PEMs were treated with LPS and cytokines in the presence of various inhibitors. After washing, inhibitor-free macrophages were tested for phagocytosis toward RBCs. […] PEMs treated with LPS and activating cytokines, or together with IL-10, were tested for total Syk and phosphorylated Syk (Syk^pY, specific at Y519/520). FIG. 5D describes PMA-induced macrophages phagocytosis toward RBCs. WT and SIRPα^−/− PEMs were treated with PMA (37° C., 30 min) before testing phagocytosis toward RBCs. FIG. 5E is a schematic depiction of PKC-Syk-mediated macrophage phagocytic activation toward self. […] Left: Inhibition of Syk by piceatannol and R406 prevented PMA-induced phagocytic activation. […] Error bars are ±SEM. ***P<0.001 vs. the respective controls. […] LPS-treated WT PEMs were further briefly treated with pervanadate before testing for phagocytosis toward RBCs. Error bars are ±SEM. ***P<0.001 vs. the respective controls. […] Data presented in each panel represent at least three independent experiments with n≥4, if applicable.
Multiple pharmacological inhibitors were tested for their effects on LPS and cytokine-induced activation of macrophage phagocytosis toward self. […] For example, inhibition of JAKs blocked IL-6 and IL-17, but not LPS and TNFα, for activation of PEM phagocytosis. […]

[3] = test system: B16 melanoma; assay: B16 melanoma pulmonary metastases model; format: in vivo, mouse; conditions: SIRPα^−/− mice
Method: Mouse models of B16 melanoma: B16-F10 melanoma cells (American Type Culture Collection) were cultured in DMEM with 8% FBS. B16 melanoma pulmonary metastases were established by intravenous (i.v.) injection of B16 cells (5×10^5, >95% viability) suspended in 100 μl PBS through the tail vein. The mice were allowed to live to reach humane endpoints or sacrificed on day 15 post B16 inoculation for analyses of melanoma formation in the lungs and other organs. To test macrophage eradication of B16 in vivo, recombinant murine IL-17 (20 μg) was given a day after the B16 implantation and then again two additional administrations three and six days later (total 3 administrations). For SIRPα^−/− mice survived first B16 injection, B16 cells (5×10^5) were injected (i.v.) once again three months without further IL-17 administration. […] For serum treatment, WT mice with B16 inoculation were given serum samples (150 μl, every three days, 3×) derived from control mice or B16-eradicated SIRPα^−/− mice. In other experiments, 2×10^7 splenocytes from control mice or B16-eradicated SIRPα^−/− mice were transferred into WT mice. After 10 days, B16 cells were inoculated into the recipient mice and melanoma development was examined.

In the case of lipopolysaccharide [LPS], the “conversion to potent phagocytes toward self” value [1] is reported as “converted all PEMs and BMDMs”, the “phagocytosis of other cell types” value ([1]; activated macrophages, CD47-SIRPα-controllable manner) is reported as “capable of phagocytizing murine splenocytes, B16 melanoma cells, and EL4 lymphoblasts” and the “phagocytosis toward CD47^− RBCs of culture-retarded WT spleen macrophages” value [1] is reported as “dramatically rekindled”. For the same molecule, the “phagocytosis toward RBCs” value [1] was “rapidly induced their phagocytosis toward RBCs” and the “Syk phosphorylation (Syk^PY, Y519/520)” value [2] was “increases in Syk^PY”.

B1: IL-17: recombinant murine cytokine interleukin IL-17 (also known as IL-17A), PeproTech (protein, UniProt Q62386 26-158, looked up)
Interleukin-17A: AAIIPQSSACPNTEAKDFLQNVKVNLKVFNSLGAKVSSRRPSDYLNRSTSPWTLHRNEDPDRYPSVIWEAQCRHQRCVNAEGKLDHHMNSVLIQQEILVLKREPESCPFTFRVEKMLVGVGCTCVASIVRQAA
With B1 the B16 melanoma [3] was “eliminated B16 melanoma”, the “conversion to potent phagocytes toward self” value [1] was “converted all PEMs and BMDMs” and the “phagocytosis toward CD47^− RBCs of culture-retarded WT spleen macrophages” value [1] was “dramatically rekindled”. The “phagocytosis toward RBCs” value [1] was “rapidly induced their phagocytosis toward RBCs”.
